From patent publication US20250296938A1, “Compounds that Interact with the Ras Superfamily for the Treatment of Cancers, Inflammatory Diseases, Rasopathies, and Fibrotic Disease” (SHY Therapeutics, LLC, priority 2018, published 2025) come the findings set out here.

The target in one experiment is T1, KRas G12D mutant (Homo sapiens, UniProt P01116, G12D).
T1 construct: fused on or other part: His tag, used for capture on nickel-coated plates
In words: Ras GTP binding domain inhibition assay (Cy3-GTP/Cy5-GTP competition). The settings on record: at 20 μM, with SOS; read-out: KRas G12D mutant + SOS: % inh. In a few lines:
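His-tagged Ras immobilized on nickel-coated wells in Tris buffer (pH 7.4 or 7.0) with 1 mM MgCl2, 1 mM DTT, 1% DMSO. Compound (20 μM, or serial dilution for IC50) incubated 3 hours at room temperature, ± Sos (residues 556-1049) in final hour. Bound 100 nM Cy3-/Cy5-GTP read after 45 minutes and washing.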
As to `COCC(C)Nc1nc(-c2nccn2C)nc2sc(-c3ccn(C)n3)c(-c3ccccc3)c12` (stereo not drawn) [drawing 999], the inhibition at 20 µM was 26 to 50%.

As to `COCCCN(C)c1nc(-c2nccn2C)nc2sc(-c3ccn(C)n3)c(-c3ccccc3)c12` [drawing 1000], the inhibition at 20 µM lay in the range of 26 to 50%.

In the case of `COCCCNc1nc(-c2nccn2C)nc2sc(-c3ccn(C)n3)c(-c3ccccc3)c12` [drawing 1001], the inhibition at 20 µM lay in the range of 26 to 50%.

In the case of `COc1cccc(-c2sc3nc(-c4nccn4C)nc(N4CCC(OC)C4)c3c2-c2cscn2)c1` (stereo not drawn) [drawing 1002], the inhibition at 20 µM is 51 to 75%.

As to `COc1ccc(-c2c(-c3ccn(C)n3)sc3nc(-c4nccn4C)nc(N4CCC(OC)C4)c23)cc1` (stereo not drawn) [drawing 1003], the inhibition at 20 µM lay in the range of 1 to 25%.

In the case of `COCC(C)Nc1nc(-c2nccn2C)nc2sc(-c3ccn(C)n3)c(-c3ccc(OC)cc3)c12` (stereo not drawn) [drawing 1004], the inhibition at 20 µM is 1 to 25%.

As for `COCCCNc1nc(-c2nccn2C)nc2sc(-c3ccn(C)n3)c(-c3ccc(OC)cc3)c12` [drawing 1005], the inhibition at 20 µM lay within 1 to 25%.

Regarding `COCCNc1nc(-c2nccn2C)nc2sc(-c3cc(OC)ccc3Cl)c(-c3ccccc3)c12` [drawing 1006], the inhibition at 20 µM was in the range of 1 to 25%.

Consider `COCCNc1nc(-c2nccn2C)nc2sc(-c3cccc(OC)c3Cl)c(-c3ccccc3)c12` [drawing 1007], for which the inhibition at 20 µM was 76 to 100%.

For the molecule `COCCNc1nc(-c2cn(C)cn2)nc2sc(-c3ccccc3Cl)c(-c3ccc(OC)cc3)c12` [drawing 1008], the inhibition at 20 µM lay in the range of 76 to 100%.

Staying with this experiment, now noted: at 20 μM, without SOS; read-out: KRas G12D mutant: % inh.
`COCC(C)Nc1nc(-c2nccn2C)nc2sc(-c3ccn(C)n3)c(-c3ccccc3)c12` (stereo not drawn) [drawing 999]: the inhibition at 20 µM was 1 to 25%.

Take `COCCCN(C)c1nc(-c2nccn2C)nc2sc(-c3ccn(C)n3)c(-c3ccccc3)c12` [drawing 1000]: the inhibition at 20 µM fell in the range of 51 to 75%.

On to `COCCCNc1nc(-c2nccn2C)nc2sc(-c3ccn(C)n3)c(-c3ccccc3)c12` [drawing 1001], for which the inhibition at 20 µM fell in the range of 1 to 25%.

Regarding `COc1cccc(-c2sc3nc(-c4nccn4C)nc(N4CCC(OC)C4)c3c2-c2cscn2)c1` (stereo not drawn) [drawing 1002], the inhibition at 20 µM is 1 to 25%.

As for `COc1ccc(-c2c(-c3ccn(C)n3)sc3nc(-c4nccn4C)nc(N4CCC(OC)C4)c23)cc1` (stereo not drawn) [drawing 1003], the inhibition at 20 µM was found to be 0%.

With `COCC(C)Nc1nc(-c2nccn2C)nc2sc(-c3ccn(C)n3)c(-c3ccc(OC)cc3)c12` (stereo not drawn) [drawing 1004], the inhibition at 20 µM was 0%.

For the molecule `COCCCNc1nc(-c2nccn2C)nc2sc(-c3ccn(C)n3)c(-c3ccc(OC)cc3)c12` [drawing 1005], the inhibition at 20 µM came out at 0%.

As for `COCCNc1nc(-c2nccn2C)nc2sc(-c3cc(OC)ccc3Cl)c(-c3ccccc3)c12` [drawing 1006], the inhibition at 20 µM lay within 26 to 50%.

As for `COCCNc1nc(-c2nccn2C)nc2sc(-c3cccc(OC)c3Cl)c(-c3ccccc3)c12` [drawing 1007], the inhibition at 20 µM was 1 to 25%.

As for `COCCNc1nc(-c2cn(C)cn2)nc2sc(-c3ccccc3Cl)c(-c3ccc(OC)cc3)c12` [drawing 1008], the inhibition at 20 µM is 26 to 50%.

The target in another experiment is Rac-1 (Homo sapiens, UniProt P63000). The description is as above. The settings on record: with SOS, read-out: Rac-1 + SOS: % inh. The method, boiled down:
(§1)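 First, His-tagged protein is coated on nickel wells overnight at 4 °C. Next, compound (20 μM single point or serial dilution) is added for 3 h at room temperature, with or without Sos exchange factor in the last hour. Finally, 100 nM labelled GTP binds for 45 min and retained signal is measured.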
For the molecule `COCC(C)Nc1nc(-c2nccn2C)nc2sc(-c3ccn(C)n3)c(-c3ccccc3)c12` (stereo not drawn) [drawing 999], the inhibition at 20 µM lay within 1 to 25%.

For `COCCCN(C)c1nc(-c2nccn2C)nc2sc(-c3ccn(C)n3)c(-c3ccccc3)c12` [drawing 1000], the inhibition at 20 µM was in the range of 26 to 50%.

As to `COCCCNc1nc(-c2nccn2C)nc2sc(-c3ccn(C)n3)c(-c3ccccc3)c12` [drawing 1001], the inhibition at 20 µM is 26 to 50%.

Regarding `COc1cccc(-c2sc3nc(-c4nccn4C)nc(N4CCC(OC)C4)c3c2-c2cscn2)c1` (stereo not drawn) [drawing 1002], the inhibition at 20 µM was in the range of 1 to 25%.

For `COc1ccc(-c2c(-c3ccn(C)n3)sc3nc(-c4nccn4C)nc(N4CCC(OC)C4)c23)cc1` (stereo not drawn) [drawing 1003], the inhibition at 20 µM is 0%.

Consider `COCC(C)Nc1nc(-c2nccn2C)nc2sc(-c3ccn(C)n3)c(-c3ccc(OC)cc3)c12` (stereo not drawn) [drawing 1004], for which the inhibition at 20 µM is 0%.

For `COCCCNc1nc(-c2nccn2C)nc2sc(-c3ccn(C)n3)c(-c3ccc(OC)cc3)c12` [drawing 1005], the inhibition at 20 µM was 0%.

With `COCCNc1nc(-c2nccn2C)nc2sc(-c3cc(OC)ccc3Cl)c(-c3ccccc3)c12` [drawing 1006], the inhibition at 20 µM was 26 to 50%.

As to `COCCNc1nc(-c2nccn2C)nc2sc(-c3cccc(OC)c3Cl)c(-c3ccccc3)c12` [drawing 1007], the inhibition at 20 µM lay in the range of 26 to 50%.

`COCCNc1nc(-c2cn(C)cn2)nc2sc(-c3ccccc3Cl)c(-c3ccc(OC)cc3)c12` [drawing 1008]: the inhibition at 20 µM was in the range of 26 to 50%.

The same experiment, now with this note: without SOS, read-out: Rac-1: % inh.
On to `COCC(C)Nc1nc(-c2nccn2C)nc2sc(-c3ccn(C)n3)c(-c3ccccc3)c12` (stereo not drawn) [drawing 999], for which the inhibition at 20 µM was in the range of 1 to 25%.

`COCCCN(C)c1nc(-c2nccn2C)nc2sc(-c3ccn(C)n3)c(-c3ccccc3)c12` [drawing 1000]: the inhibition at 20 µM lay in the range of 26 to 50%.

On to `COCCCNc1nc(-c2nccn2C)nc2sc(-c3ccn(C)n3)c(-c3ccccc3)c12` [drawing 1001], for which the inhibition at 20 µM fell in the range of 1 to 25%.

Regarding `COc1cccc(-c2sc3nc(-c4nccn4C)nc(N4CCC(OC)C4)c3c2-c2cscn2)c1` (stereo not drawn) [drawing 1002], the inhibition at 20 µM was determined as 0%.

In the case of `COc1ccc(-c2c(-c3ccn(C)n3)sc3nc(-c4nccn4C)nc(N4CCC(OC)C4)c23)cc1` (stereo not drawn) [drawing 1003], the inhibition at 20 µM came to 0%.

As for `COCC(C)Nc1nc(-c2nccn2C)nc2sc(-c3ccn(C)n3)c(-c3ccc(OC)cc3)c12` (stereo not drawn) [drawing 1004], the inhibition at 20 µM was determined as 0%.

`COCCCNc1nc(-c2nccn2C)nc2sc(-c3ccn(C)n3)c(-c3ccc(OC)cc3)c12` [drawing 1005]: the inhibition at 20 µM came out at 0%.

Consider `COCCNc1nc(-c2nccn2C)nc2sc(-c3cc(OC)ccc3Cl)c(-c3ccccc3)c12` [drawing 1006], for which the inhibition at 20 µM was 1 to 25%.

In the case of `COCCNc1nc(-c2nccn2C)nc2sc(-c3cccc(OC)c3Cl)c(-c3ccccc3)c12` [drawing 1007], the inhibition at 20 µM lay within 51 to 75%.

Regarding `COCCNc1nc(-c2cn(C)cn2)nc2sc(-c3ccccc3Cl)c(-c3ccc(OC)cc3)c12` [drawing 1008], the inhibition at 20 µM lay within 26 to 50%.

The target in the next experiment is Rho-A (Homo sapiens, UniProt P61586). The experiment is described as above. The settings on record: with SOS, read-out: Rho-A + SOS: % inh. In a few lines:
as §1
On to `COCC(C)Nc1nc(-c2nccn2C)nc2sc(-c3ccn(C)n3)c(-c3ccccc3)c12` (stereo not drawn) [drawing 999], for which the inhibition at 20 µM lay within 26 to 50%.

As to `COCCCN(C)c1nc(-c2nccn2C)nc2sc(-c3ccn(C)n3)c(-c3ccccc3)c12` [drawing 1000], the inhibition at 20 µM was determined as 0%.

Turning to `COCCCNc1nc(-c2nccn2C)nc2sc(-c3ccn(C)n3)c(-c3ccccc3)c12` [drawing 1001], the inhibition at 20 µM was 0%.

On to `COc1cccc(-c2sc3nc(-c4nccn4C)nc(N4CCC(OC)C4)c3c2-c2cscn2)c1` (stereo not drawn) [drawing 1002], for which the inhibition at 20 µM lay in the range of 1 to 25%.

Turning to `COc1ccc(-c2c(-c3ccn(C)n3)sc3nc(-c4nccn4C)nc(N4CCC(OC)C4)c23)cc1` (stereo not drawn) [drawing 1003], the inhibition at 20 µM lay within 26 to 50%.

As to `COCC(C)Nc1nc(-c2nccn2C)nc2sc(-c3ccn(C)n3)c(-c3ccc(OC)cc3)c12` (stereo not drawn) [drawing 1004], the inhibition at 20 µM is 1 to 25%.

Consider `COCCCNc1nc(-c2nccn2C)nc2sc(-c3ccn(C)n3)c(-c3ccc(OC)cc3)c12` [drawing 1005], for which the inhibition at 20 µM lay within 51 to 75%.

As for `COCCNc1nc(-c2nccn2C)nc2sc(-c3cc(OC)ccc3Cl)c(-c3ccccc3)c12` [drawing 1006], the inhibition at 20 µM fell in the range of 51 to 75%.

On to `COCCNc1nc(-c2nccn2C)nc2sc(-c3cccc(OC)c3Cl)c(-c3ccccc3)c12` [drawing 1007], for which the inhibition at 20 µM lay within 51 to 75%.

With `COCCNc1nc(-c2cn(C)cn2)nc2sc(-c3ccccc3Cl)c(-c3ccc(OC)cc3)c12` [drawing 1008], the inhibition at 20 µM is 0%.

Still in this experiment, the particulars now being: without SOS, read-out: Rho-A: % inh.
With `COCC(C)Nc1nc(-c2nccn2C)nc2sc(-c3ccn(C)n3)c(-c3ccccc3)c12` (stereo not drawn) [drawing 999], the inhibition at 20 µM worked out at 0%.

As for `COCCCN(C)c1nc(-c2nccn2C)nc2sc(-c3ccn(C)n3)c(-c3ccccc3)c12` [drawing 1000], the inhibition at 20 µM lay in the range of 1 to 25%.

On to `COCCCNc1nc(-c2nccn2C)nc2sc(-c3ccn(C)n3)c(-c3ccccc3)c12` [drawing 1001], for which the inhibition at 20 µM came to 0%.

As for `COc1cccc(-c2sc3nc(-c4nccn4C)nc(N4CCC(OC)C4)c3c2-c2cscn2)c1` (stereo not drawn) [drawing 1002], the inhibition at 20 µM is 0%.

On to `COc1ccc(-c2c(-c3ccn(C)n3)sc3nc(-c4nccn4C)nc(N4CCC(OC)C4)c23)cc1` (stereo not drawn) [drawing 1003], for which the inhibition at 20 µM was 0%.

Regarding `COCC(C)Nc1nc(-c2nccn2C)nc2sc(-c3ccn(C)n3)c(-c3ccc(OC)cc3)c12` (stereo not drawn) [drawing 1004], the inhibition at 20 µM fell in the range of 1 to 25%.

Consider `COCCCNc1nc(-c2nccn2C)nc2sc(-c3ccn(C)n3)c(-c3ccc(OC)cc3)c12` [drawing 1005], for which the inhibition at 20 µM lay in the range of 1 to 25%.

As for `COCCNc1nc(-c2nccn2C)nc2sc(-c3cc(OC)ccc3Cl)c(-c3ccccc3)c12` [drawing 1006], the inhibition at 20 µM lay within 1 to 25%.

For `COCCNc1nc(-c2nccn2C)nc2sc(-c3cccc(OC)c3Cl)c(-c3ccccc3)c12` [drawing 1007], the inhibition at 20 µM is 51 to 75%.

On to `COCCNc1nc(-c2cn(C)cn2)nc2sc(-c3ccccc3Cl)c(-c3ccc(OC)cc3)c12` [drawing 1008], for which the inhibition at 20 µM was found to be 0%.
